Measured values: patent publication US20220195487A1, “Method for Measuring Inhibition of Bacteria by Antibacterial Drug, and Bacterial Counting Device and Method Thereof” (BEIJING XINJI JINNUO MEDICAL EQUIPMENT CO.,LTD., priority 2019, published 2022)
In brackets after ≈: the same amount, converted by molar mass.

What was measured:
Format in all cases: cell-based
[1] = test system: Staphylococcus aureus (ATCC29213); assay: 2 h susceptibility by resistance bacterial counter; details: Example 3, resistance counting, 2 h at 37° C., 60% of the positive count value as threshold
Experimental: 2.2.1 Preparation of bacterial strains: In accordance with the requirements of the CLSI standards, pick each fresh strains within 24 h with a turbidity of 0.5 McFarland units in the column of strain name in Table 5;
2.2.2 Inoculation: Take 100 μL of each bacterial suspension with a turbidity of 0.5 McFarland units and dispense to a 48-well plate with pre-configured gradient antibiotics, 500 μL dispensed in each well;
2.2.3 Incubation and detection: Incubate for 2 h at 37° C., and measure with a resistance bacterial counter. Adjust the instrument to its best sensitivity and then count bacteria. Record the 24 h routine susceptibility results for comparative analysis.

[2] = test system: Staphylococcus aureus (ATCC29213); assay: 24 h routine (conventional) drug susceptibility testing by visual observation
[3] = test system: Staphylococcus aureus (ATCC29213); assay: rapid drug susceptibility testing of living cells (live bacteria counting, 2 h); details: for Living cell counts: 2 h
Experimental: 1.2.1 Preparation of bacterial strains: in accordance with the requirements of the CLSI standards, pick each fresh strains within 24 h with a turbidity of 0.5 McFarland units in the column of strain name in Table 7.
1.2.2 Inoculation: take 100 μL of each bacterial suspension with a turbidity of 0.5 McFarland units and dispense to a 48-well plate with pre-configured gradient antibiotics, 500 μL dispensed in each well.
1.2.3 Incubation and detection: incubate for 2 h at 37° C., and perform live bacteria counting. Record the 24 h routine susceptibility results for comparative analysis.

SMILES: CC[C@H]1OC(=O)[C@H](C)[C@@H](O[C@H]2C[C@@](C)(OC)[C@@H](O)[C@H](C)O2)[C@H](C)[C@@H](O[C@@H]2O[C@H](C)C[C@H](N(C)C)[C@H]2O)[C@](C)(O)C[C@@H](C)C(=O)[C@H](C)[C@@H](O)[C@]1(C)O [Erythromycin]
- 2 hMIC [1]: 0.5
- 24 hMIC ([2]; Example 3, 24 h routine susceptibility): 0.25
- MIC, conventional drug susceptibility testing ([2]; Example 4, 24 h routine susceptibility): 0.25 µg/mL (≈ 0.341 µM)
- Living cell counts ([3]; 0.03 μg/mL): 5107 cells/μL
- Living cell counts ([3]; 0.06 μg/mL): 5078 cells/μL
- Living cell counts ([3]; 0.12 μg/mL): 3980 cells/μL
- Living cell counts ([3]; 0.25 μg/mL): 889 cells/μL
- Living cell counts ([3]; 0.5 μg/mL): 609 cells/μL
- Living cell counts ([3]; 1 μg/mL): 598 cells/μL
- Living cell counts ([3]; 2 μg/mL): 498 cells/μL
- Living cell counts ([3]; 4 μg/mL): 460 cells/μL
- Living cell counts ([3]; 8 μg/mL): 446 cells/μL
- Living cell counts ([3]; 16 μg/mL): 457 cells/μL
- MIC, rapid drug susceptibility testing of living cells ([3]; Example 4, live bacteria counting, 2 h at 37° C.): 0.25 µg/mL
